Columns and labels:
[1] = Rhenium molecular probe-lipid overlay (dot blot); format: binding; parameters: key to interaction with Lysophosphatidic acid (dot blot): ✓ indicates a positive interaction; x indicates no interaction
Method: (§1) The experimental protocol probe-lipid overlay was as follows: 50 μM of each lipids was loaded on to PVDF membranes (Perkin Elmer, USA), which were then incubated with molecular probes. PhenCyano and PhenPyridyl were assessed against eleven lipids including; sphingomyelin (Cat # S0756, Sigma Aldrich, USA), sphingosine (Cat # S7049; Sigma Aldrich, USA), L-phosphatidylethanolamine (Cat # P7943, Sigma Aldrich, USA), monosialodanglioside (GM1; Cat # G7641, Sigma Aldrich, USA), oleoly-L-?-lysophosphatidic acid (Cat # L7260, Sigma Aldrich, USA), palmitic acid (Cat # P5917, Sigma Aldrich, USA), sphingomyelin (Cat # S0756, Sigma Aldrich, USA), sphingosine (Cat # S7049; Sigma Aldrich, USA), L-?-phosphatidylethanolamine (Cat # P7943, Sigma Aldrich, USA), monosialodanglioside (GM1; Cat # G7641, Sigma Aldrich, USA), progesterone (Cat #102722, MP Biomedical, USA), ceramide (Cat # C2137; Sigma Aldrich, USA), triacylglycerol mix C2-C10 (Cat #17810, Sigma Aldrich, USA) and cholesteryl acetate (Cat #151114; Sigma Aldrich, USA).
(§2) Lipids were dissolved in ethanol, methanol or isopropanol for loading depending on solubility. Following lipid loading, membranes were left to dry for 20-30 minutes, then they were washed for 10 minutes in cold 10% ethanol, before they were incubated with 10 μM solution of each Rhenium molecular probe in cold 10% ethanol for one hour. Membranes were than washed four times for 10 minutes in cold 10% ethanol prior to imaging. Imaging was performed on an Image Quant Las 4000 (GE, Sweden) luminescent image analyser, with the Rhenium molecular probe being detected by excitation at 460 nm using an epi-blue light source, and detected using an 575 nm ethidium bromide filter.

[2] = Rhenium molecular probe-lipid overlay (dot blot); format: binding; parameters: key to interaction with Progesterone (dot blot): ✓ indicates a positive interaction; x indicates no interaction
Method: as §1, §2

[3] = Rhenium molecular probe-lipid overlay (dot blot); format: binding; conditions: FIG. 7 / FIG. 8
Method: as §1
All other molecular probes were assessed against a panel of six lipids including; sphingomyelin (Cat # S0756, Sigma Aldrich, USA), sphingosine (Cat # S7049; Sigma Aldrich, USA), L-?-phosphatidylethanolamine (Cat # P7943, Sigma Aldrich, USA), monosialodanglioside (GM1; Cat # G7641, Sigma Aldrich, USA), sphingomyelin (Cat # S0756, Sigma Aldrich, USA), sphingosine (Cat # S7049; Sigma Aldrich, USA), L-?-phosphatidylethanolamine (Cat # P7943, Sigma Aldrich, USA), monosialodanglioside (GM1; Cat # G7641, Sigma Aldrich, USA) and triacylglycerol mix C2-C10 (Cat #17810, Sigma Aldrich, USA).
as §2

[4] = Rhenium probe-lipid overlay, Example 5; format: binding
Method: (§3) To determine the binding properties of tricarbonyl-(4-cyanophenyltretrazolato)-phenanthroline-rhenium (I) (Rhenium probe) to various lipids, Rhenium probe-lipid overlay was performed using either lipids spotted onto PDVF membranes (Perkin Elmer, USA) or lipid MicroStrips (Echelon Biosciences Inc., Salt Lake City, Utah). The membranes contained at least 100 pmoles of each lipid in individual spots (supplementary table 1) or 10 μL (each in PBS) of 10% (v/v) glycerol, 1% (v/v) CHAPS, 1% (w/v) SDS, 1% (v/v) Tween20, Ecydsone (10 μg/100 μL), cholesterol (10 μg/100 μL), progesterone (10 μg/100 μL), PBS, or 1% (v/v) ethanol; and were incubated with 0.5 mM of Rhenium probe in 1% (w/v) BSA/PBS for 40 minutes and then washed four times for 10 minutes in PBS. Imaging was performed on an Image Quant Las 4000 (GE, Sweden) luminescent image analyser, with the Rhenium probe being detected by excitation at 460 nm using an epi-blue light source, and detected using an 605 nm ethidium bromide filter.

[5] = molecular target: albumin (Homo sapiens, UniProt P02768); test: Rhenium probe overlay, Example 5; format: binding; conditions: neither ... nor ... reacted with the probe
albumin, sequence (P02768 25-609, species assumed): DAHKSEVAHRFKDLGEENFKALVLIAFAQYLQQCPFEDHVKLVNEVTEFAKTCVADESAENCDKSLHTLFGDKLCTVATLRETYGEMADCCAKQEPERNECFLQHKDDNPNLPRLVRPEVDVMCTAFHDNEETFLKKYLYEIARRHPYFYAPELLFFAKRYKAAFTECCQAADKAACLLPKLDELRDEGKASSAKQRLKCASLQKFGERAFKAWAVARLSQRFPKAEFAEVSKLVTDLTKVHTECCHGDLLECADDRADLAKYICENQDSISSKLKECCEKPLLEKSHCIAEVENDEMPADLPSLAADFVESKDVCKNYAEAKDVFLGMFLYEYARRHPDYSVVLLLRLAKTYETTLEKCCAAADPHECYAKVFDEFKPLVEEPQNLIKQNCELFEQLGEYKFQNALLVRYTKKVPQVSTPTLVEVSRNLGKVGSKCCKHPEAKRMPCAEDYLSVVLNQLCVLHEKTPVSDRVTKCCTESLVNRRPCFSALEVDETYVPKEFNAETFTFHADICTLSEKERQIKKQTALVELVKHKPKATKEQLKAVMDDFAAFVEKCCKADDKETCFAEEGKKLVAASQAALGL
Method: as §3

[6] = system: 3T3 L1 cells; test: Live cell staining with rhenium molecular probes; format: cell-based; conditions: live samples, 10-20 μM probe
Method: Probes were dissolved in DMSO to obtain a stock solution with a concentration of 10 mM. Stock solutions were stored at room temperature in a dark place. Working solutions were prepared only at the time of use as the probe has reduced solubility in aqueous solutions. A Working solution was a dilution 1/1000 to 1/500 of the stock in DMSO to PBS or cell medium, and as such the percentage of DMSO used in actual cell experiments was less than 1%.
For tissues, the tissues were isolated in PBS (or other physiological media) and mounted on a coverslip. For cells, these were grown as per normal practice on coverslips.
The media was removed media and replaced with 10-20 μM solution of molecular probes in PBS (or appropriate physiological media/cell media) at a dilution of stock solution from 1/1000-1/500, for 15-30 minutes at physiologically appropriate temperature (37° C. for cell culture or 25° C. for insect larvae). […] If foetal calf serum is necessary for cell health, an increased incubation time may be necessary to obtain adequate staining.
The samples were washed for one minute in PBS. […]
Micrographs of 3T3 L1, 453 cells and CHOK1 cells and Drosophila fat body tissue stained with rhenium molecular probes, PhenCyan top, PhenPyridyl bottom are shown in FIG. 10. […] Left: confocal images; Right: fluorescence microscopy images.

[7] = 10 μM probe, 50 μM lipid on PVDF membrane
[8] = 0.5 mM probe in 1% BSA/PBS, FIG. 6

N#Cc1ccc(-c2nn[n]([Re](=[C]=O)(=[C]=O)=[C]=O)n2)cc1.c1cnc2c(c1)ccc1cccnc12 [PhenCyano, Triscarbonyl phenanthroline (4-cyanophenyltetrazolato)Rhenium(I)]
interaction with Lysophosphatidic acid (dot blot) [1, 7]: ✓ | affinity towards lysophosphatidic acid, in words ([1]; FIG. 7): some affinity | interaction with Progesterone (dot blot) [2, 7]: ✓ | affinity towards progesterone, in words ([2]; FIG. 7): some affinity | interaction with triglycerides, in words [3]: no interaction detected | reactivity with long chain fatty acids ([4]; 0.5 mM probe in 1% BSA/PBS): did not react | reactivity with neutral lipids ([4]; 0.5 mM probe in 1% BSA/PBS): did not react | interaction with cholesterol [4, 8]: interacted | interaction with ecdysone [4, 8]: interacted | interaction with progesterone [4, 8]: interacted | reactivity with CHAPS [4, 8]: high level of reactivity | reactivity with deoxycholate [4, 8]: high level of reactivity | reactivity with SDS ([4]; auto-reactivity of SDS alone at 575-605 nm on membrane): some residual background reactivity | reactivity with Tween® 20 ([4]; auto-reactivity of Tween 20 alone at 575-605 nm on membrane): some residual background reactivity | reactivity with albumin [5]: Neither | staining pattern in 3T3 L1 cells [6]: distribution consistent with lipid droplet staining

— US20170328922A1, “METHODS AND PRODUCTS FOR LABELLING LIPIDS” (UNIVERSITY OF SOUTH AUSTRALIA, priority 2014, published 2017)
